In ChEMBL document CHEMBL1201862, “PubChem BioAssay data set” (2004):
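96-well plates; 48 h exposure; 5 concentrations. Endpoints by linear interpolation between flanking doses. Not reached: highest tested concentration assigned. GI50 marks 50% less growth.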 Calls of active or inactive are those of the source. Cut-off read from the data, not from the text of the source: active = GI50 up to about 1.1 µM and inactive = higher.

Columns and labels:
Assay in all cases: inhibition of tumour cell growth, NCI panel, 48 h
[1] = system: UACC-62
[2] = system: SK-OV-3
[3] = system: U-251
[4] = system: SK-MEL-28
[5] = system: SN12C
[6] = system: RXF 393
[7] = system: OVCAR-4
[8] = system: LOX IMVI
[9] = system: TK-10
[10] = system: ACHN
[11] = system: HOP-62
[12] = system: HT-29
[13] = system: IGROV-1
[14] = system: NCI-H226

Measured: GI50

O=C(/C=C/c1ccccc1F)c1ccc([N+](=O)[O-])cc1
inactive: [1] 22.9 µM | [2] 56.5 µM | [3] 15.1 µM | [4] 18.4 µM | [5] 37.8 µM | [6] 19.5 µM | [7] 25.3 µM | [8] 4.35 µM | [9] 23.9 µM | [10] 31.2 µM | [11] 32.6 µM | [12] 9.44 µM | [13] 24.3 µM

Cc1cc(C)nc(NS(=O)(=O)c2ccc(Nc3c4ccccc4nc4c(C(=O)N5CCN(CCO)CC5)ccc(Cl)c34)cc2)n1
inactive: [1] 83 µM | [2] > 100 µM | [3] 97.3 µM | [14] > 100 µM | [4] > 100 µM | [5] 94.2 µM | [6] > 100 µM | [7] > 100 µM | [9] > 100 µM | [11] > 100 µM | [12] 70 µM | [13] > 100 µM

O=C1C(=O)N(c2ccc(Cl)cc2)C(=O)C(=O)C1c1nc2ccccc2o1
inactive: [1] > 100 µM | [2] > 100 µM | [3] > 100 µM | [14] > 100 µM | [4] > 100 µM | [5] > 100 µM | [6] > 100 µM | [7] > 100 µM | [8] > 100 µM | [9] > 100 µM | [10] > 100 µM | [11] > 100 µM | [12] > 100 µM | [13] > 100 µM

COc1ccc(S(=O)(=O)N[C@H](C(=O)O)c2ccccc2)cc1
inactive: [1] > 100 µM | [2] > 100 µM | [3] > 100 µM | [14] > 100 µM | [4] > 100 µM | [5] > 100 µM | [6] > 100 µM | [7] > 100 µM | [8] > 100 µM | [9] > 100 µM | [10] > 100 µM | [11] > 100 µM | [12] > 100 µM | [13] > 100 µM

N=S(c1ccccc1)c1ccccc1[N+](=O)[O-] (stereo not given)
inactive: [1] 16.8 µM | [2] 33 µM | [3] 17.4 µM | [14] 11.9 µM | [5] 15.8 µM | [7] 14.8 µM | [8] 13.1 µM | [9] 20.4 µM | [10] 17.3 µM | [11] 25.6 µM | [12] 21.5 µM | [13] 18.1 µM

CCCCCCN(CCCCCC)C(=O)Cc1c2n(c3ccccc13)Cc1ccccc1-2
inactive: [1] > 100 µM | [2] > 100 µM | [3] 34.4 µM | [14] > 100 µM | [4] > 100 µM | [5] 52.5 µM | [6] 26.5 µM | [7] 79.8 µM | [8] 69.8 µM | [9] 51.8 µM | [10] 50.2 µM | [11] 86.7 µM | [12] 62.8 µM

Cc1cc(C)c(-c2noc(-c3ccc(Cl)cc3)c2C2=NCCN2)c(C)c1
inactive: [1] 16.8 µM | [2] 13.7 µM | [3] 15.7 µM | [14] 23.8 µM | [4] 17.7 µM | [5] 20.3 µM | [6] 14.2 µM | [7] 78.9 µM | [8] 20.3 µM | [10] 23.1 µM | [11] 22.1 µM | [12] 13.3 µM | [13] 22.2 µM

CC(C)(C)C1CCC(O)(c2ccccc2)CC1 (stereo not given)
inactive: [1] > 100 µM | [2] > 100 µM | [3] 40.6 µM | [14] > 100 µM | [4] > 100 µM | [5] 69.5 µM | [6] 50.7 µM | [8] 77.6 µM | [9] > 100 µM | [10] > 100 µM | [11] > 100 µM | [12] 74.3 µM | [13] > 100 µM

N#CC1(Cc2ccc(N)cc2)c2ccccc2C=CN1C(=O)c1ccccc1 (stereo not given)
inactive: [1] 30.8 µM | [2] 66.4 µM | [3] 46.7 µM | [14] 39.2 µM | [4] 79.3 µM | [5] 41.2 µM | [6] 27.4 µM | [8] 51.6 µM | [9] 44.4 µM | [10] 31.7 µM | [11] > 100 µM | [12] 36.1 µM | [13] 77.6 µM

CCCN(CCC)C(=O)C(=O)c1c(N)[nH]n(-c2ccccc2)c1=O
inactive: [1] > 100 µM | [2] > 100 µM | [3] > 100 µM | [14] > 100 µM | [5] > 100 µM | [7] > 100 µM | [8] > 100 µM | [9] > 100 µM | [10] > 100 µM | [12] > 100 µM | [13] > 100 µM

c1ccc2c(c1)SC(=C1Sc3ccccc3S1)S2
inactive: [1] > 100 µM | [2] > 100 µM | [3] > 100 µM | [4] > 100 µM | [5] > 100 µM | [6] > 100 µM | [7] > 100 µM | [8] 75.7 µM | [9] > 100 µM | [10] > 100 µM | [11] > 100 µM | [12] > 100 µM | [13] > 100 µM

C/C(=N\NS(=O)(=O)c1ccc(C)cc1)c1c(O)cc(C)oc1=O
inactive: [1] > 100 µM | [2] > 100 µM | [3] > 100 µM | [14] > 100 µM | [4] > 100 µM | [5] > 100 µM | [7] 29.1 µM | [8] > 100 µM | [9] > 100 µM | [10] > 100 µM | [11] > 100 µM | [12] > 100 µM | [13] > 100 µM

CC(C)c1cc2c(O)c(c1)Cc1cc(C(C)C)cc(c1O)Cc1cc(C(C)C)cc(c1O)Cc1cc(C(C)C)cc(c1O)Cc1cc(C(C)C)cc(c1O)Cc1cc(C(C)C)cc(c1O)C2
inactive: [1] > 100 µM | [3] > 100 µM | [4] > 100 µM | [5] > 100 µM | [6] > 100 µM | [7] > 100 µM | [9] > 100 µM | [10] > 100 µM | [11] > 100 µM | [12] > 100 µM | [13] > 100 µM

COC(=O)C(=O)CC(=O)CCn1[nH]c(=O)c(Cl)c(Cl)c1=O
inactive: [1] > 100 µM | [3] > 100 µM | [14] > 100 µM | [4] > 100 µM | [5] > 100 µM | [6] > 100 µM | [7] > 100 µM | [8] > 100 µM | [9] > 100 µM | [10] > 100 µM | [11] > 100 µM | [12] > 100 µM | [13] > 100 µM

Cc1ccc(S(=O)(=O)NCCCN(CCCNS(=O)(=O)c2ccc(C)cc2)S(=O)(=O)c2ccc(C)cc2)cc1
inactive: [1] > 100 µM | [2] > 100 µM | [3] > 100 µM | [14] > 100 µM | [4] > 100 µM | [5] > 100 µM | [6] > 100 µM | [8] > 100 µM | [9] > 100 µM | [10] > 100 µM | [11] > 100 µM | [13] > 100 µM
